Laboratory results from patent publication US11597708B2, “Inhibitors of heat shock factors and uses thereof” (HSF Pharmaceuticals SA, priority 2016, dated 2023).
pIC50: −log10 of the molar value.

How the values were obtained:
HSE DNA-binding activity = target: T1, HSE DNA-binding activity (Homo sapiens, UniProt Q00613); experiment: EMSA using extracts of heat-treated HeLa cells, in the presence of IHSF; type: biochemical; details: extracts of HeLa cells heat-treated at 43° C. for 30 min; concentrations as high as about 0.5 mM
T1 construct: functionally linked to an hsp70b promoter and therefore controlled by endogenous HSF1; endogenous in cells; host or cells: HeLa cells / HeLa-derived cell line Z74
T1 sequence (Q00613 1-529): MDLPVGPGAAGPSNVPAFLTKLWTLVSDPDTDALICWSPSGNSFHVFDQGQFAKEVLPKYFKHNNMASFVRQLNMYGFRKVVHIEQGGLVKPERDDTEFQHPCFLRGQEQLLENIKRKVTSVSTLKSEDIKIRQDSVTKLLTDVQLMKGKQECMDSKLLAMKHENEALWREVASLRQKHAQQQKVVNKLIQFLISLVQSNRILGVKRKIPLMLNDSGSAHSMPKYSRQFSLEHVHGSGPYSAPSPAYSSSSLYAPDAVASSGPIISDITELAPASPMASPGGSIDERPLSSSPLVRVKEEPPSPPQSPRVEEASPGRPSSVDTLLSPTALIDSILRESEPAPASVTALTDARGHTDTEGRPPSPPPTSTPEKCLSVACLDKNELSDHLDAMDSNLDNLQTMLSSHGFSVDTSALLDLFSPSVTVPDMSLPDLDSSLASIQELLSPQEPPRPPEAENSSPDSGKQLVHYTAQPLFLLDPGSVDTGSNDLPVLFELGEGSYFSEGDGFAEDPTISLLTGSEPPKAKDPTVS
Method: Electrophoretic mobility shift assays (EMSA) using a radiolabeled HSE DNA probe were carried out to assess HSF1 DNA-binding activity in extracts of heat-treated (43° C./30 min) HeLa cells that had been exposed to different concentrations of compounds 058 or 115 (FIG. 3A, top panels). […] HSF1 degradation correlated well with the observed decrease in DNA-binding activity. Therefore, HSF1 degradation provides a sufficient explanation for the reduced HSE DNA-binding activity in cells treated with IHSF 058. […] EMSA were also carried out using extracts of HeLa cells that had been heat-treated at 43° C. for 30 min.

HSF1 = target: T2, HSF1 (Homo sapiens, UniProt Q00613); experiment: Z74 cell-based reporter assay: heat-induced RLuc expression controlled by endogenous HSF1; details: Z74 cells
T2 construct: functionally linked to an hsp70b promoter and therefore controlled by endogenous HSF1; endogenous in cells; host or cells: HeLa cells / HeLa-derived cell line Z74
T2 sequence (Q00613 1-529): T1 sequence (Q00613 1-529)
From the text: For screening this sublibrary, a cell-based assay was developed. We opted for a cell-based assay, because a cell-free assay would have had to be a DNA-binding assay. Such an assay would have limited discovery to molecules capable of interfering with the DNA-binding function of HSF1. This was thought to be too narrow a focus, considering that three of the four cavities identified in the HSF1 DNA-binding domain are not near the DNA interaction region. A straightforward cell-based assay, in which a HSF1-responsive gene would be assayed, was considered likely to be over-inclusive. Compounds would be scored as hits that inhibit any factor that is involved in HSF1 activation or prevents HSF1 deactivation. These factors include protein kinases, activators of protein phosphatases, factors affecting HSF1 mRNA stability, HSP90, HDAC6, etc. For developing a more discriminating cell-based assay, advantage was taken of the modular nature of HSF1. […] The cell-based assay developed (see below for the particular format employed) compared transactivation by wild type HSF1 and chimeric HSF1 in cells exposed to an HSF1-activating heat treatment in the presence of a sublibrary compound. A compound was scored as a hit, if it inhibited the activity of wild type HSF1 but not of chimeric HSF1.
The cell-based assay made use of HeLa-derived cell line Z74 that stably contains a gene for chimeric transcription factor LexA-(human) HSF1 under the control of a CMV early promoter, a firefly luciferase (flue) gene driven by a promoter responsive to the latter chimeric transcription factor and a Renilla luciferase (rluc) gene functionally linked to an hsp70b promoter and therefore controlled by endogenous HSF1 (FIG. 1A). As is shown in FIGS. 1B & C, the reporter genes responded similarly to heat dose, i.e., their activation depended on both duration of heat exposure and temperature of the exposure. […] Depletion of HSF1 (and LexA-HSF1) by siRNA supported the notion that this stress regulation is mediated by HSF1 (and LexA-HSF1). Therefore, the Z74 line was well suited for use in a screening assay aimed at discovering molecules that inhibit heat-induced HSF1 activity through interaction with the transcription factor's DNA-binding domain.
The compounds of the afore-mentioned biased sublibrary were screened in cell line Z74 at 12.5 and 25 μM concentrations. Typically, Z74 cultures in 96-well plates were exposed to compound or vehicle for 2 h, heat-treated at 43.0° C. for 30 min, and incubated further for 6 h at 37° C. to allow for accumulation of the luciferases. RLuc and FLuc activities were determined, typically using the Dual-Glo® Luciferase Assay System (Promega Corp., Madison, Wis.), and reading luciferase light counts in a Wallac Microbeta Trilux-1450 Luminometer (PerkinElmer, Waltham, Mass.). IHSF 001 was one of two library compounds that inhibited RLuc expression but not FLuc expression in heat-treated Z74 cells (Table 1; FIG. 2A). Therefore, IHSF 001 is an inhibitor of HSF1 function that specifically acts through the HSF1 DNA-binding domain. […] A corroborating experiment utilized a cell line containing an hsp70b promoter-driven fluc gene. […] IHSF 001 is (E)-ethyl 4-oxo-4-(thiazol-2-ylamino)but-2-enoate. The compound can be obtained from commercial sources (e.g., AKE-PB-90340538, Akos).

HSE DNA-binding activity (EMSA) in the presence of IHSF (HSE DNA-binding activity): no reduction
pIC50 (HSF1; inhibition of HSF1 activity [RLuc]): 4.83
inhibition at 12.5 µM (HSF1; 12.5 μM IHSF, negative values marked *: compound enhanced rLuc activity, read-out: Inhibition of HSF1 activity at 12.5 μM IHSF [RLuc] (%)): 45%
inhibition at 25 µM (HSF1; 25 μM IHSF, 2 h exposure, 43° C. 30 min, 6 h at 37° C., read-out: Inhibition of HSF1 activity at 25 μM IHSF [RLuc] (%)): 72%
SMILES: CCOC(=O)/C=C/C(=O)Nc1ncc(-c2ccccc2C)s1 [IHSF 059, (E)-3-(5-o-Tolyl-thiazol-2-ylcarbamoyl)-acrylic acid ethyl ester]
